# Source: ChEMBL document CHEMBL5678795 (Eur J Pharmacol, 1999)
# Active and inactive are the calls of the source. The calls are words filed in the database; no cut-off is given here.
# What was measured:
# [1] = biological target: Adenosine receptor A2a (Homo sapiens) (UniProt P29274); assay: Displacement of [3H]CGS 21680 from human recombinant Adenosine A2A receptor at 10 uM incubated for 120 mins by radiometric based scintillation counter assay relative to control
# [2] = species: Mus musculus; assay: Displacement of [125I]Tyr11-somatostatin-14 from mouse Somatostatin receptor at 10 uM incubated for 60 mins by radiometric based scintillation counter assay relative to control
# [3] = biological target: 5-hydroxytryptamine receptor 7 (Homo sapiens) (UniProt P34969); assay: Displacement of [3H]LSD from human recombinant 5-Hydroxytryptamine 7 at 10 uM incubated for 120 mins by radiometric based scintillation counter assay relative to control
# Chain of 5-hydroxytryptamine receptor 7 (Homo sapiens) (P34969 whole entry): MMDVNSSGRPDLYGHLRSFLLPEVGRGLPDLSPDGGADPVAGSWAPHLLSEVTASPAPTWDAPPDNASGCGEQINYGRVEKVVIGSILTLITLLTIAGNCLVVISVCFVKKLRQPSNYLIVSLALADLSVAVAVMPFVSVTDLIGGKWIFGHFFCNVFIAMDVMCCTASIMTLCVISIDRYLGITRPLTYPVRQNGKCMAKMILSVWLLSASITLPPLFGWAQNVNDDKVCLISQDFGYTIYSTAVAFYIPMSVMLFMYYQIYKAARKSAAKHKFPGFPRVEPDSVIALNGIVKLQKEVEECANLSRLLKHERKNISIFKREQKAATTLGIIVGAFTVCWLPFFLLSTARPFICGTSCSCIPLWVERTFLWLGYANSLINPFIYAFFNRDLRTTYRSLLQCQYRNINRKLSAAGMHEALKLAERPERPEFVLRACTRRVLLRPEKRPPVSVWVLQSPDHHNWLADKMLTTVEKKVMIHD
# [4] = biological target: Neurotensin receptor type 1 (Homo sapiens) (UniProt P30989); assay: Displacement of [125I]Tyr3-neurotensin from human recombinant Neurotensin receptor at 10 uM incubated for 60 mins by radiometric based scintillation counter assay relative to control
# Chain of Neurotensin receptor type 1 (Homo sapiens) (P30989 whole entry): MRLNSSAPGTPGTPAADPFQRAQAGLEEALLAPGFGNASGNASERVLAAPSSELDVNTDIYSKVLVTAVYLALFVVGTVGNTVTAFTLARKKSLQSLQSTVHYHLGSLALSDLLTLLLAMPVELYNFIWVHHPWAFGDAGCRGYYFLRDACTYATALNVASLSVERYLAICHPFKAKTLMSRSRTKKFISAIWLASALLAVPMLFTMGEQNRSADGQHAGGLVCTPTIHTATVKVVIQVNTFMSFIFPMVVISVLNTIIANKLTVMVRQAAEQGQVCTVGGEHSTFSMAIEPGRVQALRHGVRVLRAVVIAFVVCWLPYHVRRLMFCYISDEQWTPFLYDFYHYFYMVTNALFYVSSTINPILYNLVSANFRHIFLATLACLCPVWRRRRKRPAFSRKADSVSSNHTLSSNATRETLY
# [5] = biological target: T1, Endothelin-1 receptor (Rattus norvegicus, UniProt P26684); assay: Displacement of [125I]endhothelin-1 from ETA receptor in rat MMQ cells Membrane at 25 degC incubated for 3 hrs by radioligand competition binding assay; format: cell membranes
# T1 sequence (P26684 whole entry): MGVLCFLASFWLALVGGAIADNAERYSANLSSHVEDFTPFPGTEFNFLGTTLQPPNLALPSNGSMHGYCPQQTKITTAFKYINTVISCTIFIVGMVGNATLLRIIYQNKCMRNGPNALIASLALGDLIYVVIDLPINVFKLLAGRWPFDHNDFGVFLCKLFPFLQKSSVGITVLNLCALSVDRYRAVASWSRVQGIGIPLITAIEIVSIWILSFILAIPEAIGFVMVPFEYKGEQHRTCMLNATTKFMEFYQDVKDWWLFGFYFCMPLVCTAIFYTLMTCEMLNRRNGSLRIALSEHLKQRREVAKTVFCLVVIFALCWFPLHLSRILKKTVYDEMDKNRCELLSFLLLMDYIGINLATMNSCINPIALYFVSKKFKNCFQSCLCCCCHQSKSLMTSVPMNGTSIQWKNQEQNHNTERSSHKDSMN
# [6] = biological target: Prostacyclin receptor (Homo sapiens) (UniProt P43119); assay: Displacement of [3H]iloprost from human recombinant Prostaglandin I2 receptor at 10 uM incubated for 60 mins by radiometric based scintillation counter assay relative to control
# Chain of Prostacyclin receptor (Homo sapiens) (P43119 whole entry): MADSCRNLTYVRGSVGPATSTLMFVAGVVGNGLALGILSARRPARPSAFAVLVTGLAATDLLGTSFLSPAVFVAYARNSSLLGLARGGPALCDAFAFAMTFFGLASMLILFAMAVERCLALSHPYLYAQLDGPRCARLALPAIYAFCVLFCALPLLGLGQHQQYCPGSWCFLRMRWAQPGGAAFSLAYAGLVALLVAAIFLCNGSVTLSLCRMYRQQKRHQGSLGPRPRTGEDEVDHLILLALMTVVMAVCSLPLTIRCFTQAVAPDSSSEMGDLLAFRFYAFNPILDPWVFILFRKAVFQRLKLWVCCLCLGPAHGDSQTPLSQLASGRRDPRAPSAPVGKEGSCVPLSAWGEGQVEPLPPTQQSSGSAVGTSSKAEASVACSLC
# [7] = biological target: T1, Endothelin-1 receptor; assay: Antagonist activity to ETA receptor in Sprague-Dawley rat aorta assessed as induction of vessel ring contraction preincubated for 15 mins; format: functional, tissue-based; settings: read-out: pA2 (converted)
# [8] = biological target: 5-hydroxytryptamine receptor 5A (Homo sapiens) (UniProt P47898); assay: Displacement of [3H]LSD from human recombinant 5-Hydroxytryptamine 5A at 10 uM incubated for 120 mins by radiometric based scintillation counter assay relative to control
# Chain of 5-hydroxytryptamine receptor 5A (Homo sapiens) (P47898 whole entry): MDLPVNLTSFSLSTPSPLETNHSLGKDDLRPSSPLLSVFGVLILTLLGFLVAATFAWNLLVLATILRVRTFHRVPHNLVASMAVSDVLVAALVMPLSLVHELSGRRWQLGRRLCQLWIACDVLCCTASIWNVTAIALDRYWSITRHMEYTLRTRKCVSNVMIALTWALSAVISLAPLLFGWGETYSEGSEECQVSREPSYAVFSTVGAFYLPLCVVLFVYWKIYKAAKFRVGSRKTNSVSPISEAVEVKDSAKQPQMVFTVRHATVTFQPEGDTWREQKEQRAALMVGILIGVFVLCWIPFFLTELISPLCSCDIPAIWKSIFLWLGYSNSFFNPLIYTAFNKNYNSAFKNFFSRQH
# [9] = Oral bioavailability in cynomolgus monkey at 5 mg/kg administered for 12 hrs by HPLC analysis; format: ADME, organism-based, Macaca fascicularis; settings: in vivo
# [10] = biological target: T2, Endothelin-1 receptor (Rattus norvegicus) (UniProt P26684); assay: In vivo antagonist activity to ETA receptor in endothelin-1 induced Sprague-Dawley rat assessed as inhibition of transient depressor response at 10 to 30 mg/kg, po administered for 4 hrs; format: functional, organism-based; settings: dose 10-30 mg/kg
# T2 sequence (whole entry): T1 sequence (P26684 whole entry)
# [11] = biological target: B2 bradykinin receptor (Homo sapiens) (UniProt P30411); assay: Displacement of [3H]bradykinin from human recombinant Bradykinin B2 receptor at 10 uM incubated for 60 mins by radiometric based scintillation counter assay relative to control
# Chain of B2 bradykinin receptor (Homo sapiens) (P30411 whole entry): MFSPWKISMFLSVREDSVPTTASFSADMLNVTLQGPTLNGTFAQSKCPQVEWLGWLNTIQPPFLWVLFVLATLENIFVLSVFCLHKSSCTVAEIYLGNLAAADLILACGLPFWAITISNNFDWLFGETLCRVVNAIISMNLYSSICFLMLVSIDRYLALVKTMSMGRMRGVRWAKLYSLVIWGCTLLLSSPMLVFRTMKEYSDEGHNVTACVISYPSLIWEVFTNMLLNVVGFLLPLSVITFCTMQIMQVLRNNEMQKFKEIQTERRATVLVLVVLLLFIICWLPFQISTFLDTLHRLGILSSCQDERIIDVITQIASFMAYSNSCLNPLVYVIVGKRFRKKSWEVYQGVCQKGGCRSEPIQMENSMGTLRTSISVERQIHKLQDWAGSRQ
# [12] = biological target: Muscarinic acetylcholine receptor M1 (Homo sapiens) (UniProt P11229); assay: Displacement of [3H]pirenzepine from human recombinant muscarinic M1 receptor at 10 uM incubated for 60 mins by radiometric based scintillation counter assay relative to control
# Chain of Muscarinic acetylcholine receptor M1 (Homo sapiens) (P11229 whole entry): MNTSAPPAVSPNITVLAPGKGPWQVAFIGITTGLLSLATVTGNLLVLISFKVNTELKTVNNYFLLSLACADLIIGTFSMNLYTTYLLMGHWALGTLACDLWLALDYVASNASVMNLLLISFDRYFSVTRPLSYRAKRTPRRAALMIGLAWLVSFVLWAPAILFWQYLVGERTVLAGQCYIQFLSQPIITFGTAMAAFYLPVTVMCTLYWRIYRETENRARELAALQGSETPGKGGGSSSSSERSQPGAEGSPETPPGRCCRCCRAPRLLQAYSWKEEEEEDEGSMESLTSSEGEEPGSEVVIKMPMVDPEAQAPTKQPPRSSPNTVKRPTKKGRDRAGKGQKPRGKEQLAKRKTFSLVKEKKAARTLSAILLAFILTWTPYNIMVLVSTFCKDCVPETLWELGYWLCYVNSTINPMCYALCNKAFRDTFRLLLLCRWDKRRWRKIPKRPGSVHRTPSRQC
# [13] = biological target: Interleukin-1 beta (Homo sapiens) (UniProt P01584); assay: Inhibition of Interleukin-1beta (unknown origin) at 10 uM by radioligand binding assay relative to control
# Chain of Interleukin-1 beta (Homo sapiens) (P01584 117-269 limits assumed): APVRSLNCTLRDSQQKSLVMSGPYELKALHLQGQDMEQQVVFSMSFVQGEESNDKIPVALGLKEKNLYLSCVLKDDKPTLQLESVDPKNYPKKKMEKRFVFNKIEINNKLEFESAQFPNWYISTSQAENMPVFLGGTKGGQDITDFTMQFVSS
# [14] = test system: Glutamate receptor ionotropic NMDA (PCP site); assay: Inhibition of PCP receptor (unknown origin) at 10 uM by radioligand binding assay relative to control; settings: Homo sapiens
# [15] = species: Homo sapiens; assay: Inhibition of Thromboxane A2 receptor/prostaglandin H2 receptor (unknown origin) at 10 uM by radioligand binding assay relative to control
# [16] = biological target: D(3) dopamine receptor (Homo sapiens) (UniProt P35462); assay: Displacement of [3H]methyl-spiperone from human recombinant dopamine D3 receptor at 10 uM incubated for 60 mins by radiometric based scintillation counter assay relative to control
# Chain of D(3) dopamine receptor (Homo sapiens) (P35462 whole entry): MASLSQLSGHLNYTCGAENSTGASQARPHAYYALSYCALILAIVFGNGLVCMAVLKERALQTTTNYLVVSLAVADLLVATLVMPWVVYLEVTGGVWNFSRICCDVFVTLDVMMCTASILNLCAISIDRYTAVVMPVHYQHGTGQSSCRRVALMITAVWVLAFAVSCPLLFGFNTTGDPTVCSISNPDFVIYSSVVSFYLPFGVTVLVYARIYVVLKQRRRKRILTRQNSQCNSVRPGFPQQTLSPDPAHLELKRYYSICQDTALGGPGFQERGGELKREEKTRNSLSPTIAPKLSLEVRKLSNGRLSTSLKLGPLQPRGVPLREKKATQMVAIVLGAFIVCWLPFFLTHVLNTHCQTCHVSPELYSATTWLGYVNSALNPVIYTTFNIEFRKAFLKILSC
# [17] = biological target: Endothelin receptor type B (Oryctolagus cuniculus) (UniProt Q9N0W7); assay: Antagonist activity to ETB receptor in rabbit pulmonary artery assessed as induction of vessel ring contraction preincubated for 15 mins; format: functional, tissue-based
# Chain of Endothelin receptor type B (Oryctolagus cuniculus) (Q9N0W7 whole entry): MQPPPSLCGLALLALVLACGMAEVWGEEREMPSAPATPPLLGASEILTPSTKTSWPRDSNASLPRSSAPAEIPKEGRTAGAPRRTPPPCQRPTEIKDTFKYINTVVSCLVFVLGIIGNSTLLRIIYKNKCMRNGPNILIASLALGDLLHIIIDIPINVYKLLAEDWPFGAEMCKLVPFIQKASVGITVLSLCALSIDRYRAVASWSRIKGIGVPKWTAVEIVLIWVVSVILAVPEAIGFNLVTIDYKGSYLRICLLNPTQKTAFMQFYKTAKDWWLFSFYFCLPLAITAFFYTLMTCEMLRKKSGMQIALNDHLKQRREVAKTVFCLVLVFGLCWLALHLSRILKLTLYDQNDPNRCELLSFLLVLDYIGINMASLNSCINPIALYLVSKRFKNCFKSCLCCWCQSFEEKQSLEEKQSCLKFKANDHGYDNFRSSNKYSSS
# [18] = biological target: Adenosine receptor A3 (Homo sapiens) (UniProt P0DMS8); assay: Displacement of [125I]AB-MECA from human recombinant adenosine A3 receptor at 10 uM incubated for 120 mins by radiometric based scintillation counter assay relative to control
# [19] = biological target: T3, Endothelin receptor type B (Homo sapiens, UniProt P24530); assay: Displacement of [125I]endhothelin-3 from human ETB receptor stably expressed in CHO cells Membrane at 25 degC incubated for 3 hrs by radioligand competition binding assay; format: cell membranes
# T3 sequence (P24530 whole entry): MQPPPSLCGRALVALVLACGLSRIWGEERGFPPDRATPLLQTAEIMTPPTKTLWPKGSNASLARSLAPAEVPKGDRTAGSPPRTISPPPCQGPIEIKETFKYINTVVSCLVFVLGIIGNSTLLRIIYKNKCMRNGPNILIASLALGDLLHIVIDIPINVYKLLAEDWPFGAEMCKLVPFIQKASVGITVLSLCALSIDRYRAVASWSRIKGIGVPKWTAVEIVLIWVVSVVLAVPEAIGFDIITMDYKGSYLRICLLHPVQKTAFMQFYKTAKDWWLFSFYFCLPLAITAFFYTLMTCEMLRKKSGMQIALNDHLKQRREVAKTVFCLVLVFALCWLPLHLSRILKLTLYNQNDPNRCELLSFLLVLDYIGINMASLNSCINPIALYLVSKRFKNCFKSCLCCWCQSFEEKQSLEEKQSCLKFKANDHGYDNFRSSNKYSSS
# [20] = Volume of distribution at steady state during terminal phase in Sprague-Dawley rat at 5 mg/kg, iv administered for 12 hrs by reverse phase HPLC-UV analysis; format: ADME, organism-based; settings: in vivo, read-out: Vbeta
# [21] = species: Homo sapiens; assay: Displacement of [3H]Dofetilide from human recombinant voltage-dependent K+ channel at 10 uM incubated for 60 mins by radiometric based scintillation counter assay relative to control
# [22] = biological target: Vasopressin V1a receptor (Homo sapiens) (UniProt P37288); assay: Displacement of [3H]AVP from human recombinant Vasopressin V1a receptor at 10 uM incubated for 60 mins by radiometric based scintillation counter assay relative to control
# Chain of Vasopressin V1a receptor (Homo sapiens) (P37288 whole entry, looked up): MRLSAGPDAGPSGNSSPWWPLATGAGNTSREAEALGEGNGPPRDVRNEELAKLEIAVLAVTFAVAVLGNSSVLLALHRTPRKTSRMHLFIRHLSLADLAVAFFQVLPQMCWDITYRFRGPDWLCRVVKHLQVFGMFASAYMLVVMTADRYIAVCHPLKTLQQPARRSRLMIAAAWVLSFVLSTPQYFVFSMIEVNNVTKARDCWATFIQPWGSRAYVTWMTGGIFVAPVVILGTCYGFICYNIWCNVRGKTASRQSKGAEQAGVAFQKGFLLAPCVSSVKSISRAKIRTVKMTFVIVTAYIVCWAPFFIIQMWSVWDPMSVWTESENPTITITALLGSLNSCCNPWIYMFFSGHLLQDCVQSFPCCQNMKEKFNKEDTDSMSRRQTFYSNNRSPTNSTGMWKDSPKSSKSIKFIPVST
# [23] = biological target: Vasoactive intestinal polypeptide receptor 1 (Homo sapiens) (UniProt P32241); assay: Displacement of [125I]VIP from human recombinant Vasoactive intestinal peptide receptor at 10 uM incubated for 60 mins by radiometric based scintillation counter assay relative to control
# Chain of Vasoactive intestinal polypeptide receptor 1 (Homo sapiens) (P32241 whole entry): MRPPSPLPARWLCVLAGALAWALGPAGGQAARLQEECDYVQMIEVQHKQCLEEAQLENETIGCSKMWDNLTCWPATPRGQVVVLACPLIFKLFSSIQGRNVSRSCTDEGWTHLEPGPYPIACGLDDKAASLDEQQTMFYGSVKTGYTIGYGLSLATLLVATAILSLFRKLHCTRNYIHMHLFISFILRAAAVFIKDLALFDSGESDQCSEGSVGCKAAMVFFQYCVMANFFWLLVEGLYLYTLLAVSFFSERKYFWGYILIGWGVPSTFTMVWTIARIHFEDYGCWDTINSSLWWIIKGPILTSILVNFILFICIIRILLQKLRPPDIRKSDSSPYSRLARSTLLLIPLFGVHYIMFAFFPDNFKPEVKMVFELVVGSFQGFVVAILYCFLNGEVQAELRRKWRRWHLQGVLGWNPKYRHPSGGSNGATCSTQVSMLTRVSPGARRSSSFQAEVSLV
# Chain of Adenosine receptor A2a (Homo sapiens) (P29274 whole entry): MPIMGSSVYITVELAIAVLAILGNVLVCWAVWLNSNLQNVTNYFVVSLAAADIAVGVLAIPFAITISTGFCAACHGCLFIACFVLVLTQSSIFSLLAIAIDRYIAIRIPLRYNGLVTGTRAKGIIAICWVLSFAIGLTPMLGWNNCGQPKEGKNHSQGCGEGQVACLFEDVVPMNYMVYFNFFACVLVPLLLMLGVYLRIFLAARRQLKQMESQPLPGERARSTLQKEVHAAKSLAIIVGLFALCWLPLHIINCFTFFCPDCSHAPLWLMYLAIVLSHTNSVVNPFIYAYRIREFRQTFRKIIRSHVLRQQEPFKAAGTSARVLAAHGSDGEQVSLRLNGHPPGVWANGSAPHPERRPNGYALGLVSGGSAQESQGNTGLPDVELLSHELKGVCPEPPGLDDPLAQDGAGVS
smiles,measurement,setting,value
CCCCN(CCCC)C(=O)CN1[C@H](c2cc(OC)c3c(c2)OCO3)C[C@@H](C(=O)O)[C@@H]1CC(C)(C)CCC,inhibition,[1],< 10%
same,inhibition,[2],< 10%
same,inhibition,[3],< 10%
same,inhibition,[4],< 10%
same,IC50,[5],0.56 nM
same,inhibition,[6],15%
same,Kb,[7],5.13 nM
same,inhibition,[8],< 10%
same,bioavailability,[9],18.1%
same,Activity,[10],inactive
same,inhibition,[11],< 10%
same,inhibition,[12],< 10%
same,inhibition,[13],< 10%
same,inhibition,[14],< 10%
same,inhibition,[15],16%
same,inhibition,[16],< 10%
same,Activity,[17],inactive
same,inhibition,[18],32%
same,IC50,[19],15400 nM
same,Vd,[20],3.7 L/kg
same,inhibition,[21],< 10%
same,inhibition,[22],< 10%
same,inhibition,[23],< 10%
